Results from ChEMBL document CHEMBL4177607, “Antibacterial constituents of the plant family Amaryllidaceae” (2017).
Values after ≈ are worked out from the molar mass of the structure shown. Each block holds one compound with its values, some of them ahead of it.

How the values were obtained:
Type in all cases: functional
[1] = tested on: Staphylococcus aureus; assay: Antibacterial activity against Staphylococcus aureus assessed as diameter of inhibition zone at 1 mg/ml; details: read-out: DIZ
[2] = tested on: Escherichia coli; assay: Antibacterial activity against Escherichia coli assessed as diameter of inhibition zone at 1 mg/ml; details: read-out: DIZ
[3] = tested on: Shigella flexneri; assay: Antibacterial activity against Shigella flexneri after 24 hrs by broth microdilution method
[4] = tested on: Escherichia coli; assay: Antibacterial activity against Escherichia coli after 24 hrs by broth microdilution method
[5] = tested on: Pseudomonas aeruginosa; assay: Antibacterial activity against Pseudomonas aeruginosa after 24 hrs by broth microdilution method
[6] = tested on: Rhodococcus fascians; assay: Antibacterial activity against Corynebacterium fascians assessed as diameter of inhibition zone at 10 mM after 48 to 72 hrs by paper disc method; details: Rhodococcoides fascians; read-out: DIZ
[7] = tested on: Staphylococcus aureus; assay: Antibacterial activity against Staphylococcus aureus
[8] = tested on: Flavobacterium columnare; assay: Antibacterial activity against Flavobacterium columnare ALM-00-173 after 24 hrs; details: ALM-00-173, 24 h
[9] = tested on: Edwardsiella ictaluri; assay: Antibacterial activity against Edwardsiella ictaluri after 24 hrs
[10] = tested on: Flavobacterium columnare; assay: Antibacterial activity against Flavobacterium columnare BioMed after 24 hrs
[11] = tested on: Staphylococcus aureus; assay: Antibacterial activity against Staphylococcus aureus incubated overnight by two-fold serial dilution method
[12] = tested on: Escherichia coli; assay: Antibacterial activity against Escherichia coli incubated overnight by two-fold serial dilution method
[13] = tested on: Escherichia coli; assay: Antibacterial activity against Escherichia coli
[14] = tested on: Neisseria gonorrhoeae; assay: Antibacterial activity against Neisseria gonorrhoeae
[15] = tested on: Agrobacterium tumefaciens; assay: Antibacterial activity against Agrobacterium tumefaciens assessed as inhibition of crown gall tumor initiation at 1 mg/ml
[16] = tested on: Escherichia coli; assay: Antibacterial activity against Escherichia coli assessed as diameter of inhibition zone at 3 mg/ml; details: read-out: DIZ
[17] = tested on: Staphylococcus aureus; assay: Antibacterial activity against Staphylococcus aureus assessed as diameter of inhibition zone at 3 mg/ml; details: read-out: DIZ

SMILES: COc1cc2c(cc1OC)[C@H]1[C@H]3C(=CC[C@H]1O[C@@H]2OC)CCN3C
- zone of inhibition at 1000 µg/mL [1]: 14 mm
- zone of inhibition at 1000 µg/mL [2]: 14 mm

- MIC [3]: 2 µg/mL (≈ 5.4 µM)
- MIC [4]: 4 µg/mL (≈ 10.8 µM)
- MIC [5]: 8 µg/mL (≈ 21.6 µM)
SMILES: CCCC(=O)Oc1ccc([C@@H]2CC(=O)c3c(O)c(C)c(O)c(C)c3O2)cc1

SMILES: c1cc2c3c(c1)-c1cc4c(cc1CN3CC2)OCO4 [ANHYDROLYCORINE]
- zone of inhibition at 10000 µM [6]: 25 mm

SMILES: O=C1N[C@H]2[C@H](O)[C@H](O)[C@@H](O)C[C@@H]2c2cc3c(c(O)c21)OCO3
- MIC [3]: 4 µg/mL (≈ 12.9 µM)
- MIC [4]: 4 µg/mL (≈ 12.9 µM)
- MIC [5]: 16 µg/mL (≈ 51.7 µM)

- MIC [7]: > 37 µg/mL
- MIC [8]: 4 µg/mL
- MIC [9]: > 37 µg/mL
- MIC [10]: 37 µg/mL
SMILES: CC(=O)O[C@H]1[C@H]2c3cc4c(cc3CN3CCC(=C[C@@H]1OC(C)=O)[C@H]23)OCO4

- MIC [8]: 100 µM
- MIC [10]: 10 µM
SMILES: COc1cc2c[n+]3c4c(cc([O-])cc4c2cc1O)CC3

SMILES: COC1C=C[C@@]23CCN(Cc4cc5c(cc42)OCO5)[C@@H]3C1 (stereo partly specified)
- MIC [11]: 1020 µg/mL (≈ 3590 µM)
- MIC [12]: 1020 µg/mL (≈ 3590 µM)

- MIC [8]: 10 µM
- MIC [10]: 100 µM
SMILES: [O-]c1ccc2c3c1c1cc4c(cc1c[n+]3CC2)OCO4

- MIC [8]: 46.4 µg/mL
- MIC [10]: 22.9 µg/mL
SMILES: Cc1ccc(C(=O)O[C@H]2[C@H]3c4cc5c(cc4CN4CCC(=C[C@@H]2OC(=O)c2ccc(C)cc2)[C@H]34)OCO5)cc1

- MIC [13]: 2050 µg/mL (≈ 7550 µM)
SMILES: O[C@@H]1CC=C2CCN3Cc4cc5c(cc4[C@H]1[C@@H]23)OCO5 [CARANINE]

- MIC [14]: 32 to 64 µg/mL (≈ 72.2 to 144 µM)
SMILES: CC1(C)O[C@@H]2[C@H]3OS(=O)(=O)O[C@H]3[C@]3(O)c4cc5c(c(O)c4C(=O)N[C@H]3[C@@H]2O1)OCO5

SMILES: O=C1N[C@@H]2C(=C[C@H](O)[C@@H](O)[C@H]2O[C@@H]2O[C@H](CO)[C@@H](O)[C@H](O)[C@H]2O)c2cc3c(c(O)c21)OCO3
- inhibition at 1000 µg/mL [15]: 53%

SMILES: Oc1ccc2c3c1c1cc4c(cc1c[n+]3CC2)OCO4
- zone of inhibition at 10000 µM [6]: 10 mm

SMILES: O[C@@H]1C=C[C@]23CCN(Cc4cc5c(cc42)OCO5)[C@H]3C1 [VITTATINE]
- zone of inhibition at 3000 µg/mL [16]: 22 mm
- zone of inhibition at 3000 µg/mL [17]: 19 mm

- MIC [7]: > 37 µg/mL
- MIC [8]: > 37 µg/mL
- MIC [9]: > 37 µg/mL
- MIC [10]: > 37 µg/mL
SMILES: CC(=O)O[C@H]1[C@H]2c3cc4c(cc3CN3CC[C@H](C[C@@H]1OC(C)=O)[C@H]23)OCO4

- MIC [8]: 5.5 µg/mL
- MIC [10]: 5.5 µg/mL
SMILES: Cc1ccccc1NC(=O)O[C@H]1[C@H]2c3cc4c(cc3CN3CCC(=C[C@@H]1OC(=O)Nc1ccccc1C)[C@H]23)OCO4

- MIC [8]: 40.7 µg/mL
- MIC [10]: 40.7 µg/mL
SMILES: CC(=O)O[C@H]1[C@H]2c3cc4c(cc3CN3CCC(=C[C@@H]1OC(C)=O)[C@H]23)OCO4.Cl

- MIC [8]: 1 µM
- MIC [10]: 10 µM
SMILES: Oc1cc2c3c(c1)c1cc4c(cc1c[n+]3CC2)OCO4
- zone of inhibition at 10000 µM [6]: 0 mm

SMILES: CC[C@H](CC[C@@H](C)[C@H]1CC[C@H]2[C@@H]3CC=C4C[C@@H](O)CC[C@]4(C)[C@H]3CC[C@]12C)C(C)C [BETA-SITOSTEROL]
- zone of inhibition at 1000 µg/mL [1]: 15 mm
- zone of inhibition at 1000 µg/mL [2]: 13 mm

- MIC [7]: > 32 µg/mL
- MIC [8]: 3 µg/mL
- MIC [9]: > 32 µg/mL
- MIC [10]: 32 µg/mL
SMILES: Cl.O[C@H]1[C@H]2c3cc4c(cc3CN3CCC(=C[C@@H]1O)[C@H]23)OCO4

SMILES: CC(=O)O[C@H]1C=C2CCN3Cc4cc5c(cc4[C@H]([C@@H]1O)[C@@H]23)OCO5
- MIC [8]: 16.6 µg/mL
- MIC [10]: 3.3 µg/mL

- MIC [7]: > 26 µg/mL
- MIC [8]: > 26 µg/mL
- MIC [9]: > 26 µg/mL
- MIC [10]: > 26 µg/mL
SMILES: O=C1C=C2CCN3Cc4cc5c(cc4[C@H]([C@@H]1O)[C@@H]23)OCO5

SMILES: CN(C)[C@@H]1C(O)=C(C(N)=O)C(=O)[C@@]2(O)C(O)=C3C(=O)c4c(O)cccc4[C@@](C)(O)[C@H]3C[C@@H]12 [TETRACYCLINE]
- MIC [11]: 0.5 µg/mL (≈ 1.13 µM)
- MIC [12]: 2 µg/mL (≈ 4.5 µM)

- MIC [3]: 2 µg/mL (≈ 6.66 µM)
- MIC [4]: 4 µg/mL (≈ 13.3 µM)
- MIC [5]: 8 µg/mL (≈ 26.6 µM)
SMILES: Cc1c(O)c(C)c2c(c1O)C(=O)C[C@@H](c1ccc(O)cc1)O2 [FARREROL]

- MIC [8]: 4.1 µg/mL
- MIC [10]: 4.1 µg/mL
SMILES: Cc1ccccc1C(=O)O[C@H]1[C@H]2c3cc4c(cc3CN3CCC(=C[C@@H]1OC(=O)c1ccccc1C)[C@H]23)OCO4

- MIC [8]: 5.5 µg/mL
- MIC [10]: 30.4 µg/mL
SMILES: Cc1ccc(C(=O)O[C@H]2[C@H]3c4cc5c(cc4CN4CCC(=C[C@@H]2OC(=O)c2ccc(C)cc2C)[C@H]34)OCO5)c(C)c1

- MIC [8]: 31 µg/mL
- MIC [10]: 5.6 µg/mL
SMILES: O=C(O[C@H]1[C@H]2c3cc4c(cc3CN3CCC(=C[C@@H]1OC(=O)c1ccc(Cl)cc1)[C@H]23)OCO4)c1ccc(Cl)cc1
